Test results: patent publication US11753397B2, “Cereblon binders for the degradation of ikaros” (C4 Therapeutics, Inc., priority 2018, dated 2023)

Test system: NCIH929.1 cells
Assay: Cell viability assay (CellTiter-Glo 2.0, ATP quantification)
Type: cell-based
Settings: NCIH929.1 cell viability, CellTiter-Glo 2.0, 96 hr incubation, top concentration 1 μM
Description: Example 59. Cell Viability Assay
RPMI 1640 medium, fetal bovine serum (FBS) and 2-mercaptoethanol were purchased from Gibco (Grand Island, N.Y., USA). CellTiter-Glo® 2.0 Assay was purchased from Promega (Madison, Wis., USA). NCIH929.1 cell line was purchased from ATCC (Manassas, Va., USA). Cell culture flasks and 384-well microplates were acquired from VWR (Radnor, Pa., USA).
NCIH929.1 cell viability was determined based on quantification of ATP using CellTiter-Glo® 2.0 luminescent Assay kit, which signals the presence of metabolically-active cells. Briefly, the test compound was added to 384-well plates at a top concentration of 1 μM with 10 points, half log titration in duplicates. NCIH929.1 cells were seeded into the 384-well plates in RPMI medium containing 10% FBS and 0.05 mM 2-mercaptoethanol at a cell density of 750 cells per well. Cells treated in the absence of the test compound were the negative control and cells treated in the absence of CellTiter-Glo® 2.0 were the positive control. At the same day of compound treatment, CellTiter-Glo® 2.0 was added to a plate with cells treated in the absence of the test compound to establish Cytostatic control value (CT0). Cells treated with the test compound were incubated at 37° C. with 5% CO2 for 96 hr. CellTiter-Glo reagent was then added to the cells and luminescence was acquired on EnVision™ Multilabel Reader (PerkinElmer, Santa Clara, Calif., USA).

**Q.** With `CCCCC(=O)N1CCC(n2cc(CNc3cccc4c3C(=O)N(C3CCC(=O)NC3=O)C4=O)cn2)CC1` (centres unmarked) [Compound 40, 2-(2,6-dioxopiperidin-3-yl)-4-(((1-(1-pentanoylpiperidin-4-yl)-1H-pyrazol-4-yl)methyl)amino)isoindoline-1,3-dione] as the compound, how does the GI50 read?
**A.** Its GI50 is less than 100 nM.

**Q.** For `CC(C)OCC(=O)N1CCC(n2cc(CNc3cccc4c3C(=O)N(C3CCC(=O)NC3=O)C4=O)cn2)CC1` (centres unmarked) [Compound 41, 2-(2,6-dioxopiperidin-3-yl)-4-(((1-(1-(2-isopropoxyacetyl)piperidin-4-yl)-1H-pyrazol-4-yl)methyl)amino)-isoindoline-1,3-dione], which GI50 is on record?
**A.** Its GI50 is less than 100 nM.

**Q.** Which GI50 does the source give for `O=C1CCC(N2C(=O)c3cccc(NCc4cnn(C5CCN(C(=O)C6CCCOC6)CC5)c4)c3C2=O)C(=O)N1` (centres unmarked) [Compound 42, 2-(2,6-dioxopiperidin-3-yl)-4-(((1-(1-(tetrahydro-2H-pyran-3-carbonyl)piperidin-4-yl)-1H-pyrazol-4-yl)methyl)amino)isoindoline-1,3-dione] here?
**A.** Its GI50 is less than 100 nM.

**Q.** How did the GI50 turn out when `O=C1CCC(N2C(=O)c3cccc(NCc4cnn(C5CCN(C(=O)CN6CCOCC6)CC5)c4)c3C2=O)C(=O)N1` (centres unmarked) [Compound 43, 2-(2,6-dioxopiperidin-3-yl)-4-(((1-(1-(2-morpholinoacetyl)piperidin-4-yl)-1H-pyrazol-4-yl)methyl)amino)isoindoline-1,3-dione] was run?
**A.** Its GI50 is less than 100 nM.

**Q.** Which GI50 does the source give for `O=C1CCC(N2C(=O)c3cccc(NCc4cnn(C5CCN(C(=O)C67CC8CC(CC(C8)C6)C7)CC5)c4)c3C2=O)C(=O)N1` (centres unmarked) [Compound 44, 4-(((1-(1-(adamantane-1-carbonyl)piperidin-4-yl)-1H-pyrazol-4-yl)methyl)amino)-2-(2,6-dioxopiperidin-3-yl)isoindoline-1,3-dione] here?
**A.** The GI50 was less than 1 nM.

**Q.** With `CC1CC1C(=O)N1CCC(n2cc(CNc3cccc4c3C(=O)N(C3CCC(=O)NC3=O)C4=O)cn2)CC1` (centres unmarked) [Compound 45, 2-(2,6-dioxopiperidin-3-yl)-4-(((1-(1-(2-methylcyclopropane-1-carbonyl)piperidin-4-yl)-1H-pyrazol-4-yl)methyl)amino)isondoline-1,3-dione] as the compound, how does the GI50 read?
**A.** Its GI50 is less than 100 nM.

**Q.** For `CC(C)(O)CC(=O)N1CCC(n2cc(CNc3cccc4c3C(=O)N(C3CCC(=O)NC3=O)C4=O)cn2)CC1` (centres unmarked) [Compound 46, 2-(2,6-dioxopiperidin-3-yl)-4-(((1-(1-(3-hydroxy-3-methylbutanoyl)piperidin-4-yl)-1H-pyrazol-4-yl)methyl)amino)isoindoline-1,3-dione], which GI50 is on record?
**A.** The GI50 was less than 100 nM.

**Q.** How did the GI50 turn out when `O=C1CCC(N2C(=O)c3cccc(NCc4cnn(C5CCN(C(=O)CC67CC8CC(CC(C8)C6)C7)CC5)c4)c3C2=O)C(=O)N1` (centres unmarked) [Compound 47, 4-(((1-(1-(2-(adamantan-1-yl)acetyl)piperidin-4-yl)-1H-pyrazol-4-yl)methyl)amino)-2-(2,6-dioxopiperidin-3-yl)isoindoline-1,3-dione] was run?
**A.** The GI50 was less than 1 nM.

**Q.** How did the GI50 turn out when `C[C@@H](C(=O)N1CCC(n2cc(CNc3cccc4c3C(=O)N(C3CCC(=O)NC3=O)C4=O)cn2)CC1)c1ccccc1` (stereo partly drawn) [Compound 48, 2-(2,6-dioxopiperidin-3-yl)-4-(((1-(1-((R)-2-phenylpropanoyl)piperidin-4-yl)-1H-pyrazol-4-yl)methyl)amino)isoindoline-1,3-dione] was run?
**A.** Its GI50 is less than 100 nM.

**Q.** `CC(C)CC(=O)N1CCC(n2cc(CNc3cccc4c3C(=O)N(C3CCC(=O)NC3=O)C4=O)cn2)CC1` (centres unmarked) [Compound 49, 2-(2,6-dioxopiperidin-3-yl)-4-(((1-(1-(3-methylbutanoyl)piperidin-4-yl)-1H-pyrazol-4-yl)methyl)amino)isoindoline-1,3-dione] was tested. Which GI50 did it give?
**A.** Its GI50 is less than 100 nM.

**Q.** `CC(C)(N)C(=O)N1CCC(n2cc(CNc3cccc4c3C(=O)N(C3CCC(=O)NC3=O)C4=O)cn2)CC1` (centres unmarked) [Compound 50, 4-(((1-(1-(2-amino-2-methylopropanoyl)piperidin-4-yl)-1H-pyrazol-4-yl)methyl)amino)-2-(2,6-dioxopiperidin-3-yl)isoindoline-1,3-dione] was tested. Which GI50 did it give?
**A.** The GI50 was less than 100 nM.
